Values joined by “and” are separate entries in the source; they are usually repeats but may differ in a detail not shown here. Equal values may be shown once.
What was measured:
Hsp104^WT = biological target: T1, Hsp104^WT (Saccharomyces cerevisiae, UniProt P31539); assay: Manual ATPase assay, Hsp104^WT; assay type: biochemical, yeast; settings: for Normalized ATPase Activity: Figure 2B
T1 construct: made in house; host or cells: E. coli BL21-DE3 RIL
Description: (§1) Wild-type or mutant Hsp104 (0.25 µM monomer) in ATPase buffer (20 mM HEPES-KOH pH 7.4, 20 mM NaCl and 10 mM MgCl2) was incubated for 60 or 10 min at 25°C in the presence of ATP (1 mM) as noted. ATPase activity was assessed by the release of inorganic phosphate determined by using a malachite green phosphate detection kit (Innova).

Hsp104 = biological target: T2, Hsp104 (Saccharomyces cerevisiae, UniProt P31539); assay: Luciferase disaggregation/reactivation assay, Hsp104 with ATP:ATPγS; assay type: biochemical, yeast
T2 construct: made in house; host or cells: E. coli BL21-DE3 RIL
Description: (§2) Luciferase reactivation was performed as described, [37]. To assemble aggregates, firefly luciferase (50 µM) in luciferase refolding buffer (LRB, 25 mM HEPES-KOH, 7.4, 150 mM KAOc, 10 mM MgAOc, 10 mM DTT) with 6 M urea was incubated at 30°C for 20 min. Luciferase was then rapidly diluted 100-fold into LRB, divided into 100 µL aliquots, snap frozen in liquid N2, and stored at −80°C. For reactivation assays, aggregated luciferase (50 nM) was incubated with Hsp104 (1 µM hexamer), plus 2.6 mM ATPγS, 2.6 mM ATP and an ATP regeneration system (1 mM creatine phosphate, 0.25 µM creatine kinase (Roche Applied Science)) for 90 minutes at 25°C. Luciferase assay system was purchased from Promega. Luciferase activity was assessed by luminescence measured on a Safire^2 microplate reader (Tecan, Männedorf, Switzerland). The half maximal inhibitory concentration (IC50) was calculating by fitting luciferase-refolding data at different Suramin concentrations with Prism (GraphPad Software, Inc., La Jolla, CA).

ClpB = biological target: T3, ClpB (Escherichia coli, UniProt P63284); assay: ClpB luciferase reactivation assay; assay type: biochemical, E. coli
T3 construct: made in house
Description: as §2
(A) ClpB (0.25 µM monomer) was incubated for 10 min with ATP (1 mM) and varying concentrations of Suramin. The amount of Pi produced was measured by absorbance at 635 nm. Absorbance values were normalized to the absorbance produced by ClpB in the absence of inhibitor. Values represent mean ±S.D. (n = 6). (B) Urea-denatured firefly luciferase aggregates were incubated for 90 min at 25°C with ClpB (1 µM hexamer) in the presence of 1∶1 mixtures of ATP and ATPγS and varying concentrations of Suramin. Reactivation of luciferase was then determined by luminescence and converted to % WT ClpB activity (activity of 1 µM WT ClpB in the presence of ATP and ATPγS). Values represent mean ±S.D. (n = 6–12). TEXT PRINTED IN THE PICTURE: (A) Suramin: Normalized ATPase Activity: 1.03 ([Suramin] μM: 0); Normalized ATPase Activity: 0.76 ([Suramin] μM: 100); Normalized ATPase Activity: 0.78 ([Suramin] μM: 50); Normalized ATPase Activity: 0.60 ([Suramin] μM: 25); Normalized ATPase Activity: 0.59 ([Suramin] μM: 10); Normalized ATPase Activity: 0.65 ([Suramin] μM: 5); Normalized ATPase Activity: 1.01 ([Suramin] μM: 1) | (B) Suramin: Normalized Luciferase Refolding Activity: 1.00 ([Suramin] μM: 0); Normalized Luciferase Refolding Activity: 0.16 ([Suramin] μM: 100); Normalized Luciferase Refolding Activity: 1.03 ([Suramin] μM: 50); Normalized Luciferase Refolding Activity: 1.39 ([Suramin] μM: 25); Normalized Luciferase Refolding Activity: 2.23 ([Suramin] μM: 10); Normalized Luciferase Refolding Activity: 1.82 ([Suramin] μM: 5); Normalized Luciferase Refolding Activity: 1.02 ([Suramin] μM: 1)

Hsp104^A503V = biological target: T4, Hsp104^A503V (Saccharomyces cerevisiae, UniProt P31539, A503V); assay: ATPase assay, Hsp104^A503V; assay type: biochemical, yeast
T4 construct: made in house; host or cells: E. coli BL21-DE3 RIL
Description: as §1
Figure 7 Hsp104 variants respond differently to Suramin than Hsp104^WT. (A) Hsp104 variants (0.25 µM monomer) were incubated for 10 min with ATP (1 mM) and varying concentrations of Suramin. The amount of Pi produced was measured by absorbance at 635 nm. Absorbance values were normalized to the absorbance produced by each Hsp104 variant in the absence of inhibitor. Values represent mean ±S.D. (n = 6). (B) Urea-denatured firefly luciferase aggregates were incubated for 90 min at 25°C with Hsp104 variants (1 µM hexamer) plus 1∶1 mixtures of ATP and ATPγS (or ATP alone) and varying concentrations of Suramin. Luciferase reactivation was then determined and normalized to untreated disaggregase activity for each variant in the presence of ATPγS: ATP (or ATP alone). 1∶1 mixtures of ATP and ATPγS were used for Hsp104^WT and Hsp104^T317A, while ATP alone was used for Hsp104^A503V and Hsp104^N728A. Values represent mean ±S.D. (n = 6–12).

[1] = biological target: T5, Quantilum recombinant luciferase (Photinus pyralis, UniProt P08659); assay: Luciferase activity determination (native luciferase control); assay type: biochemical; settings: Suramin 100 µM, luciferase 50 nM; data not shown
T5 construct: purchased Promega (Madison, WI)
Description: Quantilum recombinant luciferase (native) was diluted to 5000, 500, 50, 5 and 0.5 nM in the presence or absence of Suramin. Dilutions were mixed with luciferase assay system (Promega). Luciferase activity was assessed by luminescence measured on a Safire^2 microplate reader.

T3 sequence (P63284 whole entry): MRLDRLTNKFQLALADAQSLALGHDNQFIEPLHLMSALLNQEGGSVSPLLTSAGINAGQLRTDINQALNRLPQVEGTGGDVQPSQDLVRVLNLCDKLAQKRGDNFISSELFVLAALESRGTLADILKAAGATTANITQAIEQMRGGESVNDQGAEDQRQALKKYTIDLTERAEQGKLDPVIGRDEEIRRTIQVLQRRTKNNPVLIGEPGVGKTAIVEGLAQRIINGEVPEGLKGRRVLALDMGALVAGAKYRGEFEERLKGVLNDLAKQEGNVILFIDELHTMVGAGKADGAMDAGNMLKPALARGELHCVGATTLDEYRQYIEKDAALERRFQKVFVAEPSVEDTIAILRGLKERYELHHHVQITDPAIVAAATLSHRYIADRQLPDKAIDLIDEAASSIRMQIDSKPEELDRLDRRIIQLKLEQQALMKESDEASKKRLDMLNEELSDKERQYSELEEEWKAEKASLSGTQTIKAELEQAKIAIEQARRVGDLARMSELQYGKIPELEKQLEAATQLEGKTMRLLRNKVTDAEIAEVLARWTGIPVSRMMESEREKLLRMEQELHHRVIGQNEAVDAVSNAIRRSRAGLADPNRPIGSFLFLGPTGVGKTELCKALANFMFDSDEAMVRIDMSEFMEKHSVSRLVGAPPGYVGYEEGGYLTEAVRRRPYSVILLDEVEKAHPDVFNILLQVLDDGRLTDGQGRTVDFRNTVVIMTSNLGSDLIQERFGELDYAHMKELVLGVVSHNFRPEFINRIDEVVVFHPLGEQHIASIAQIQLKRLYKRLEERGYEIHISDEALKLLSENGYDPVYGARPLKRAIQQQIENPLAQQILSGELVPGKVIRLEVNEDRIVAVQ
T1 sequence (P31539 whole entry): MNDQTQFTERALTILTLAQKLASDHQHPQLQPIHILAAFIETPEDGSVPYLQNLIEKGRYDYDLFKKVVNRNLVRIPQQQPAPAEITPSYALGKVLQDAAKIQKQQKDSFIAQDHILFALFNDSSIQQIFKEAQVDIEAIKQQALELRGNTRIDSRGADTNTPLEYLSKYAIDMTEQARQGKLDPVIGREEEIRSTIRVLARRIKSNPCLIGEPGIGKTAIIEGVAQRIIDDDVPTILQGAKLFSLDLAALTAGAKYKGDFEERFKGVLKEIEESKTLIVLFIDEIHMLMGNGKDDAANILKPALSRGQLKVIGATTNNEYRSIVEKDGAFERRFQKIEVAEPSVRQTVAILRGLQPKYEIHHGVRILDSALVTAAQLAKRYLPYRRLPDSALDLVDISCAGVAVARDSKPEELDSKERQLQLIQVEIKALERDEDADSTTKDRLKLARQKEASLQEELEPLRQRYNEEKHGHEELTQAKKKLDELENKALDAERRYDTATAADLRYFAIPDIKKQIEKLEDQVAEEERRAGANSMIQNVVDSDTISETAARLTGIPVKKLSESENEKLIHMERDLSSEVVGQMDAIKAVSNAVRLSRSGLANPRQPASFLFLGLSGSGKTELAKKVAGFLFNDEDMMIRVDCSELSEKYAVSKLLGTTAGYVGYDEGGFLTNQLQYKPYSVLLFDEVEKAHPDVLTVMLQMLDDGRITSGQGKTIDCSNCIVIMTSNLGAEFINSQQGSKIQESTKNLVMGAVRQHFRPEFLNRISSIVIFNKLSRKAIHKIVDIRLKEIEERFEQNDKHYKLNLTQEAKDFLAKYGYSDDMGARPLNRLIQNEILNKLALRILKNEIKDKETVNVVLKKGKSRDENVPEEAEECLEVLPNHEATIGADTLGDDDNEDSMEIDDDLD
T2 sequence (P31539 whole entry): as above
T4 sequence (P31539 whole entry A503V): as the sequence (P31539 whole entry) above, with A503V counted along it
T5 sequence (P08659 whole entry): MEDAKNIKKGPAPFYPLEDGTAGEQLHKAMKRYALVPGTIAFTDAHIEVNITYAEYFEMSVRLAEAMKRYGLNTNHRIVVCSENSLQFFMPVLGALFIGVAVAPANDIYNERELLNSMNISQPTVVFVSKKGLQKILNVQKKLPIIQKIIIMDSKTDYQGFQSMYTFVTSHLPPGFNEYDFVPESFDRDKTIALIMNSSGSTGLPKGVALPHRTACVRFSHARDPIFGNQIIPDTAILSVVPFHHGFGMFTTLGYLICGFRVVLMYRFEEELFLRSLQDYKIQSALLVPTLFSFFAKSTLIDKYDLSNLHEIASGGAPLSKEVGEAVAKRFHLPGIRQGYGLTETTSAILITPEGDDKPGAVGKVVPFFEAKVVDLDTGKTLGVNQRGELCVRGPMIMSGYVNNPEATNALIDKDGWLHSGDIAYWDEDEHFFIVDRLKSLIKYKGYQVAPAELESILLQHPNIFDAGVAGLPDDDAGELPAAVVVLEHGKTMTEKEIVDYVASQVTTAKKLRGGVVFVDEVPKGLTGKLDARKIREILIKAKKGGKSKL

In the case of Cc1ccc(C(=O)Nc2ccc(S(=O)(=O)O)c3cc(S(=O)(=O)O)cc(S(=O)(=O)O)c23)cc1NC(=O)c1cccc(NC(=O)Nc2cccc(C(=O)Nc3cc(C(=O)Nc4ccc(S(=O)(=O)O)c5cc(S(=O)(=O)O)cc(S(=O)(=O)O)c45)ccc3C)c2)c1 [Suramin], the IC50 (Hsp104^WT; 10 min reaction, ATP 1 mM) is reported as about 3.39 µM, the “Effect on Hsp104 ATPase activity (Pi produced), manual assay” value (Hsp104^WT; 60 min, ATP 1 mM, varying concentrations, Figure 2A) is reported as “greatly diminished the amount of Pi produced in a concentration-dependent manner” and the “Inhibitor concentration of maximal ATPase inhibition” value (Hsp104^WT; Hsp104 WT) is reported as 25 µM. For the same compound, the “Normalized ATPase Activity” value (Hsp104^WT; Suramin 1 µM, 10 min, ATP 1 mM) was 1.08, the “Normalized ATPase Activity” value (Hsp104^WT; Suramin 5 µM, 10 min, ATP 1 mM) was 0.62 and the “Normalized ATPase Activity” value (Hsp104^WT; Suramin 10 µM, 10 min, ATP 1 mM) was 0.37. For the same compound, the “Normalized ATPase Activity” value (Hsp104^WT; Suramin 25 µM, 10 min, ATP 1 mM) was 0.27, the activity at 25 µM (Hsp104^WT; Suramin 25 µM, 10 min, read-out: Hsp104^WT ATPase activity relative to uninhibited Hsp104) was 30% and the “Normalized ATPase Activity” value (Hsp104^WT; Suramin 50 µM, 10 min, ATP 1 mM) was 0.29. The inhibition at 100 µM (Hsp104^WT; Suramin 100 µM, 10 min) was over 60%, the “Normalized ATPase Activity” value (Hsp104^WT; Suramin 100 µM, 10 min, ATP 1 mM) was 0.33 and the activity at 100 µM (Hsp104^WT; Suramin 100 µM, 10 min, read-out: Hsp104^WT ATPase activity relative to uninhibited protein) was about 35%. For the same compound, the “Normalized ATPase Activity” value (Hsp104^WT; Suramin 250 µM, 10 min, ATP 1 mM) was 0.37, the “Normalized Luciferase Refolding Activity” value (Hsp104; Figure 3D, Hsp104 alone (104), ATP:ATPγS 1:1, Suramin 25 µM) was 0.14 and the “Normalized Luciferase Refolding Activity” value (Hsp104; Figure 3D, Hsp104 alone (104), ATP:ATPγS 1:1, Suramin 100 µM) was 0.00. The “Hsp104^WT refolding activity” value (Hsp104; Suramin 1 µM) was 100%, the “Normalized Luciferase Refolding Activity” value (Hsp104; Suramin 1 µM, 90 min 25°C, ATP:ATPγS 1:1, Figure 3B) was 0.99 and the “Normalized Luciferase Refolding Activity” value (Hsp104; Suramin 5 µM, 90 min 25°C, ATP:ATPγS 1:1, Figure 3B) was 0.63. For the same compound, the “Normalized Luciferase Refolding Activity” value (Hsp104; Suramin 10 µM, 90 min 25°C, ATP:ATPγS 1:1, Figure 3B) was 0.50, the “Normalized Luciferase Refolding Activity” value (Hsp104; Suramin 25 µM, 90 min 25°C, ATP:ATPγS 1:1, Figure 3B) was 0.14 and the Hsp104 refolding activity (Hsp104; Suramin 50 µM) was “practically inactive”. The “Normalized Luciferase Refolding Activity” value (Hsp104; Suramin 50 µM, 90 min 25°C, ATP:ATPγS 1:1, Figure 3B) was 0.03, the “Effect on Hsp104 refolding of denatured luciferase” value (Hsp104; Suramin 100 µM) was “completely ablated the ability of Hsp104 to refold denatured luciferase” and the “Normalized Luciferase Refolding Activity” value (Hsp104; Suramin 100 µM, 90 min 25°C, ATP:ATPγS 1:1, Figure 3B) was 0.00. For the same compound, the IC50 (Hsp104; fit of luciferase-refolding data, ATP:ATPγS 1:1, read-out: IC50, Hsp104^WT luciferase refolding) was ~10.1 µM and 10.1 µM, the “Normalized Luciferase Refolding Activity” value (ClpB; ClpB 1 µM hexamer, Suramin 100 µM, 90 min 25°C, ATP:ATPγS 1:1, Figure 5B) was 0.16 and the “Normalized Luciferase Refolding Activity” value (ClpB; ClpB, Suramin 1 µM, Figure 5B) was 1.02. The “Normalized Luciferase Refolding Activity” value (ClpB; ClpB, Suramin 5 µM, Figure 5B) was 1.82, the “Normalized Luciferase Refolding Activity” value (ClpB; ClpB, Suramin 10 µM, Figure 5B) was 2.23 and the “Normalized Luciferase Refolding Activity” value (ClpB; ClpB, Suramin 25 µM, Figure 5B) was 1.39. The “Normalized Luciferase Refolding Activity” value (ClpB; ClpB, Suramin 50 µM, Figure 5B) was 1.03, the “ClpB refolding power retained” value (ClpB; Suramin 50 µM) was 100% and the remaining activity at 100 µM (ClpB; Suramin 100 µM, read-out: ClpB disaggregase activity remaining) was 16%. The “Effect on ClpB luciferase reactivation” value (ClpB; low concentrations of Suramin) was “increased the amount of luciferase ClpB was able to reactivate”, the “Inhibitor concentration of maximal ATPase inhibition” value (Hsp104^A503V; Hsp104^A503V) was 25 µM and the activity at 25 µM (Hsp104^A503V; read-out: Hsp104^A503V ATPase activity relative to uninhibited) was 18%. The “Effect on luciferase activity itself” value [1] was “did not inhibit luciferase activity”.
